The supplement of paper PMC10307832

Experiments:
Assay in all cases: relative viability (nuclei count vs DMSO), 5 days (fraction); higher = more cells survive
Pemetrexed + Phenformin = compound: Nc1nc2[nH]cc(CCc3ccc(C(=O)N[C@@H](CCC(=O)O)C(=O)O)cc3)c2c(=O)[nH]1 [Pemetrexed] + N=C(N)NC(=N)NCCc1ccccc1 [Phenformin] (partner 250 µM)
Procedure, shortened: (§1)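 Nuclei were stained with Hoechst during a one-step fixation (final 0.05% Triton X-100, 1% formaldehyde, 1 ug/ml Hoechst) carried out 5 days after dosing, then counted on 4× images. The cells, lung cancer lines in 1536-well plates, had been dosed by pin tool the day after seeding with one drug alone or a fixed anchor-drug dose plus five library-drug doses (not always all listed) in √10 steps. Relative viability is the nuclei count in treated wells divided by that in vehicle wells, and each value is the median of duplicate plates.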

Idelalisib + Vorinostat = compound: CC[C@H](Nc1ncnc2[nH]cnc12)c1nc2cccc(F)c2c(=O)n1-c1ccccc1 [Idelalisib] + O=C(CCCCCCC(=O)Nc1ccccc1)NO [Vorinostat] (partner 1 µM)
Procedure, shortened: as §1

Pemetrexed + Foretinib = compound: Nc1nc2[nH]cc(CCc3ccc(C(=O)N[C@@H](CCC(=O)O)C(=O)O)cc3)c2c(=O)[nH]1 [Pemetrexed] + COc1cc2c(Oc3ccc(NC(=O)C4(C(=O)Nc5ccc(F)cc5)CC4)cc3F)ccnc2cc1OCCCN1CCOCC1 [Foretinib] (partner 0.25 µM)
Procedure, shortened: as §1

Idelalisib + Navitoclax = compound: CC[C@H](Nc1ncnc2[nH]cnc12)c1nc2cccc(F)c2c(=O)n1-c1ccccc1 [Idelalisib] + CC1(C)CCC(c2ccc(Cl)cc2)=C(CN2CCN(c3ccc(C(=O)NS(=O)(=O)c4ccc(N[C@H](CCN5CCOCC5)CSc5ccccc5)c(S(=O)(=O)C(F)(F)F)c4)cc3)CC2)C1 [Navitoclax] (partner 0.5 µM)
Procedure, shortened: as §1

Cell Line | relative viability (Pemetrexed + Phenformin; first compound 0.002 µM) | relative viability (Pemetrexed + Phenformin; first compound 0.006325 µM) | relative viability (Pemetrexed + Phenformin; first compound 0.02 µM) | relative viability (Pemetrexed + Phenformin; first compound 0.06325 µM) | relative viability (Pemetrexed + Phenformin; first compound 0.2 µM) | relative viability (Idelalisib + Vorinostat; first compound 0.04 µM) | relative viability (Idelalisib + Vorinostat; first compound 0.1265 µM) | relative viability (Idelalisib + Vorinostat; first compound 1.265 µM) | relative viability (Idelalisib + Vorinostat; first compound 4 µM) | relative viability (Pemetrexed + Foretinib; first compound 0.002 µM) | relative viability (Pemetrexed + Foretinib; first compound 0.006325 µM) | relative viability (Pemetrexed + Foretinib; first compound 0.02 µM) | relative viability (Pemetrexed + Foretinib; first compound 0.06325 µM) | relative viability (Pemetrexed + Foretinib; first compound 0.2 µM) | relative viability (Idelalisib + Navitoclax; first compound 0.04 µM) | relative viability (Idelalisib + Navitoclax; first compound 0.1265 µM) | relative viability (Idelalisib + Navitoclax; first compound 1.265 µM) | relative viability (Idelalisib + Navitoclax; first compound 4 µM) | relative viability (Idelalisib + Vorinostat; first compound 0.4 µM) | relative viability (Idelalisib + Navitoclax; first compound 0.4 µM)
NCI-H441 | 0.594 | 0.793 | 0.515 | 0.555 | 0.393 | 0.851 | 0.908 | 0.737 | 0.758 | 1.02 | 0.926 | 1.08 | 0.741 | 0.438 | 0.556 | 0.67 | 0.467 | 0.574 | – | –
NCI-H1437 | – | 0.348 | 0.281 | 0.196 | 0.163 | 0.902 | 0.932 | 0.964 | 0.903 | – | 1.2 | 1.07 | 0.796 | 0.413 | 0.956 | 1.13 | 1.17 | 1.11 | 0.895 | 1.08
PC-14 | 0.452 | 0.582 | 0.901 | 0.445 | 0.27 | 0.901 | 0.709 | 0.363 | 0.68 | 0.894 | 0.927 | 1 | 0.611 | 0.258 | 0.987 | 1.1 | 1.14 | 1.02 | 0.633 | 0.953
COR-L23 | 0.394 | 0.431 | 0.47 | 0.26 | 0.173 | 0.535 | 0.396 | 0.535 | 0.421 | 1.01 | 1.07 | 0.946 | 0.497 | 0.239 | 1.07 | 0.965 | 1.11 | 1.02 | 0.396 | 1.05
H3255 | 0.349 | 0.355 | 0.414 | 0.418 | 0.414 | 0.978 | 0.853 | 0.91 | 0.736 | 0.608 | 0.924 | 1.07 | 0.943 | 0.741 | 0.617 | 0.513 | 0.415 | 0.38 | 0.796 | 0.506
NCI-H2126 | 0.536 | 0.555 | 0.574 | 0.507 | 0.486 | 0.932 | 0.865 | 0.861 | 0.671 | 1.02 | 1.19 | 1.29 | 0.565 | 1.03 | 0.896 | 0.861 | 0.805 | 0.789 | 0.464 | 0.813
HCC-366 | 0.515 | 0.616 | 0.672 | 0.612 | 0.571 | 0.391 | 0.36 | 0.293 | 0.325 | 0.799 | 0.888 | 0.963 | 0.863 | 0.901 | 1.11 | 1.11 | 1.01 | 0.97 | 0.33 | 1.01
LU99A | 0.784 | 0.93 | 0.848 | 0.779 | 0.786 | 0.536 | 0.468 | 0.535 | 0.506 | 0.776 | 0.775 | 0.811 | 0.793 | 0.768 | 0.835 | 0.894 | 0.91 | 0.827 | 0.387 | 0.719
HOP-62 | 0.567 | 0.675 | 0.659 | 0.716 | 0.611 | 0.669 | 0.66 | 0.619 | 0.491 | 0.892 | 1.02 | 1.2 | 1.09 | 1.07 | 1.01 | 1.03 | 1.29 | 1.03 | 0.576 | 1.01
HCC-15 | 0.439 | 0.455 | 0.531 | 0.372 | 0.21 | 0.764 | 0.865 | 0.889 | 0.69 | 0.987 | 0.987 | 1.06 | 0.645 | 0.219 | 0.692 | 0.712 | 0.699 | 0.591 | 0.888 | 0.67
HARA | 0.402 | 0.447 | 0.508 | 0.297 | 0.137 | 0.453 | 0.504 | 0.574 | 0.39 | 0.856 | 0.87 | 1 | 0.846 | 0.393 | 1.2 | 1.11 | 1.16 | 1.09 | 0.473 | 1.17
SK-MES-1 | 0.647 | 0.638 | 0.705 | 0.642 | 0.614 | 1.19 | 1.06 | 0.395 | 1.04 | 0.883 | 0.83 | 1.04 | 0.907 | 0.868 | 0.995 | 1.41 | 1.08 | 0.867 | 0.974 | 1.12
NCI-H1355 | 0.432 | 0.468 | 0.45 | 0.503 | 0.438 | 0.628 | 0.662 | 0.612 | 0.548 | 0.864 | 0.956 | 1.05 | 1.01 | 0.948 | 0.982 | 0.947 | 0.774 | 0.667 | 0.512 | 0.701
NCI-H727 | – | 0.484 | 0.474 | 0.633 | 0.525 | 1.24 | 1.17 | 1.25 | 1.05 | 0.823 | 0.902 | 0.87 | 0.838 | 0.966 | 0.454 | 0.57 | 0.548 | 0.354 | 1.12 | 0.416
